The subject of one experiment is MCF7. Kind of experiment: Cytotoxicity against human MCF7 cells after 24 hrs by MTS assay. In kind it is functional, cell-based. As to conditions: MCF7, 24 h.
The next experiment has as its system A549. The experiment can be described thus: Cytotoxicity against human A549 cells after 24 hrs by MTS assay. In kind it is functional, cell-based. As to conditions: A549, 24 h. In general terms: Formazan colour is commonly taken as a measure of viable cells.
Experiment [1] has as its target T1, Tyrosine-protein phosphatase non-receptor type 1 (Homo sapiens, UniProt P18031).
T1 sequence (P18031 whole entry): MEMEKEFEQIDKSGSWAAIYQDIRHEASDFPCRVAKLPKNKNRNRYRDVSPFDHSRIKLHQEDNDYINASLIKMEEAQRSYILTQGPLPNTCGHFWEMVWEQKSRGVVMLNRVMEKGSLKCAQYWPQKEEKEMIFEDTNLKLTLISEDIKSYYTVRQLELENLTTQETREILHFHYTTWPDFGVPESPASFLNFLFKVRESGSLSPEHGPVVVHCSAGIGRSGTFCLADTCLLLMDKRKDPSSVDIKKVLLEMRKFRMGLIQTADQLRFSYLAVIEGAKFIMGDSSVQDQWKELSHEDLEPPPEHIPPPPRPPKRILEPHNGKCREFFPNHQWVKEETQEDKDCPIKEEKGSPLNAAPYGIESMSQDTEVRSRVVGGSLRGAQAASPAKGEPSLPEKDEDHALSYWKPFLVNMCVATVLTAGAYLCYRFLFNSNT
The experiment can be described thus: Inhibition of recombinant human GST-tagged PTP1B catalytic domain using para-nitrophenyl phosphate as substrate.

As usually defined, the IC50 is the concentration at which inhibition is half-maximal. As to `C=C1C(=O)O[C@H]2[C@H]1[C@H](OC(C)=O)C/C(C)=C/CC[C@@]1(C)O[C@@H]21`, the IC50 with MCF7 was determined as 1.5 µM; in the experiment with A549, 7.3 µM.

As for `CC[C@]1(O)C(=O)O[C@H]2[C@H]1[C@H](OC(C)=O)C/C(C)=C/CC[C@@]1(C)O[C@@H]21`, the half-maximal inhibitory concentration (IC50) is 45.7 µM in the experiment with MCF7 and above 200 µM in the experiment with A549.

Take `CC(=O)CC[C@@H]1C[C@@]2(OC1(C)C)C(=O)CC[C@@]2(C)O`: in experiment [1], the IC50 was determined as 46.3 µM. For `COc1cccc2c1C(=O)c1c(O)c3c(c(O)c1C2=O)C[C@@](O)(C(=O)CO)C[C@@H]3O[C@H]1C[C@H](N)[C@H](O)[C@H](C)O1` [DOXORUBICIN], the midpoint of inhibition in the experiment with A549, the IC50, lay at 0.21 µM.

Values taken from ChEMBL document CHEMBL4196240, “Structurally Diverse Sesquiterpenoids from the Endangered Ornamental Plant Michelia shiluensis” (J Nat Prod, 2018).
